Legend:
Test in all cases: Kinobeads competition binding, HL60 cell lysate
Parameters in all cases: endogenous in cells
Settings in all cases: 10 μM free compound
TBK1 = target: T1, TBK1 (Homo sapiens, UniProt Q9UHD2)
T1 sequence (Q9UHD2 1-729): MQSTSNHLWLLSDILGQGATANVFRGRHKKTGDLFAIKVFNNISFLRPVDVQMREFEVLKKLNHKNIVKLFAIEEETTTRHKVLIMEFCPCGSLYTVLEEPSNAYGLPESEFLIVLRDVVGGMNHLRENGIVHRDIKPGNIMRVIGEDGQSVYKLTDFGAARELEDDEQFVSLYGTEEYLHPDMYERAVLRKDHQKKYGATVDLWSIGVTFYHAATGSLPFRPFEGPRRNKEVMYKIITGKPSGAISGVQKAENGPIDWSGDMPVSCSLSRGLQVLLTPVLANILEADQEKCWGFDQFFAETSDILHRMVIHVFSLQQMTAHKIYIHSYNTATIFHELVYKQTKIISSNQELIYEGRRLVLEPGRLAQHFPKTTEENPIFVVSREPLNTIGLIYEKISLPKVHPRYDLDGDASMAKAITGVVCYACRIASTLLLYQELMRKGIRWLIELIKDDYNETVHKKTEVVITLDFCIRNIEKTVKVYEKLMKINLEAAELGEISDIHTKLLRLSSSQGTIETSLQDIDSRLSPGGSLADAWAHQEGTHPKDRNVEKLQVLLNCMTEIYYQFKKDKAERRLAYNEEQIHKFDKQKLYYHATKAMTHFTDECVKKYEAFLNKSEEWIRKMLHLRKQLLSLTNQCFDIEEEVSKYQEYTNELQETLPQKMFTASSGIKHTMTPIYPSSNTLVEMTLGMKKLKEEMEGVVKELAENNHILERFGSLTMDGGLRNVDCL
Method in brief: (§1)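 Relative binding comes from iTRAQ reporter signals after Kinobeads-style pull-down from HL60 lysate in the presence of 10 μM free compound versus solvent.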

Wee1 = Wee1 (Homo sapiens, UniProt P30291)
Chain of Wee1 (P30291 whole entry): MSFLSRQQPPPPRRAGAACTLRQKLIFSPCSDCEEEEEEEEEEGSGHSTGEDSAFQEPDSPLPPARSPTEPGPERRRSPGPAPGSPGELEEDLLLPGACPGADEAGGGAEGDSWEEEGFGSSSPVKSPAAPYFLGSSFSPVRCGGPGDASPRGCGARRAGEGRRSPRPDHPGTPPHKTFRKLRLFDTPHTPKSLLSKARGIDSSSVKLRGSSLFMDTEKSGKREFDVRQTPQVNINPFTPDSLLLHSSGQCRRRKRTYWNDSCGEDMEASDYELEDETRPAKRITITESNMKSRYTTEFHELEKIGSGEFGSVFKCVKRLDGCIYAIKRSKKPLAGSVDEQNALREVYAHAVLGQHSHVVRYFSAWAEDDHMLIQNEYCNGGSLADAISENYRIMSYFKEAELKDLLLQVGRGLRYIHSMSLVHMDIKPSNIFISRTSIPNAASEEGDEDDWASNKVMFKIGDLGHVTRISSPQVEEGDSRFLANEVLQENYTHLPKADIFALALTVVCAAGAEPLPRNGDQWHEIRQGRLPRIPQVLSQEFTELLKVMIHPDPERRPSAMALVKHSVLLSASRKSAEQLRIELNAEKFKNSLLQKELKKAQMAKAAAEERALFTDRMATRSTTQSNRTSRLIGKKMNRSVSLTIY
Method in brief: as §1

NEK3 = target: T2, NEK3 (Homo sapiens, UniProt P51956)
T2 sequence (P51956 1-506): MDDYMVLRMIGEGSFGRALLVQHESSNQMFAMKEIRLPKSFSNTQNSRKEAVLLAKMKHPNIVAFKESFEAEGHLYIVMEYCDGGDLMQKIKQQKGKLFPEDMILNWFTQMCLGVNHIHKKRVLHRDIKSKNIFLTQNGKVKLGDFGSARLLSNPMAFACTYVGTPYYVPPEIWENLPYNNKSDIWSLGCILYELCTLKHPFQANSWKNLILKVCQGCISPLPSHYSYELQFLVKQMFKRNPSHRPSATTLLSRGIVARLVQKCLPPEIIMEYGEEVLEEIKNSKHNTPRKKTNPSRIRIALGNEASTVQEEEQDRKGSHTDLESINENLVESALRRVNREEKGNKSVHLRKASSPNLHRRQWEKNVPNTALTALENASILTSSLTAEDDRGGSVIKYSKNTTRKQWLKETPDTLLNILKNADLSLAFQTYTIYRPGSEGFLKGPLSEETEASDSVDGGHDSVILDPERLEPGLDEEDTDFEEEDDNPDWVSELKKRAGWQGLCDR
Method in brief: as §1

CaMKK2 = CaMKK2 (Homo sapiens, UniProt Q96RR4)
Chain of CaMKK2 (Q96RR4 whole entry): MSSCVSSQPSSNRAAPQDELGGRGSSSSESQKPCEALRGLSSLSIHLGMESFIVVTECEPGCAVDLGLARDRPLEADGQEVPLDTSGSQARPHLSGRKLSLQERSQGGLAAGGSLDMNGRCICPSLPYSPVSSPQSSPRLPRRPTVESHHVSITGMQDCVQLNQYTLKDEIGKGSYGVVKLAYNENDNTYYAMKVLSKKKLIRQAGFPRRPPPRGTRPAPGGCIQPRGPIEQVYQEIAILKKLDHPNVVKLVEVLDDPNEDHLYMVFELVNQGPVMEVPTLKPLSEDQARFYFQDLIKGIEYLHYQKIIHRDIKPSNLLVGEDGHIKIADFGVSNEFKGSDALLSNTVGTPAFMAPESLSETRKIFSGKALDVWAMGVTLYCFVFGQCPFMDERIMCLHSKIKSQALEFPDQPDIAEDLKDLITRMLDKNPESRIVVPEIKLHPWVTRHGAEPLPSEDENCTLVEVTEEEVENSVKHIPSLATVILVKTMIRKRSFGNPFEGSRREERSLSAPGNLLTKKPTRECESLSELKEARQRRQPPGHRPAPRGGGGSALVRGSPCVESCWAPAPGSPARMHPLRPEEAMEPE
Method in brief: as §1

MLK4 = MLK4 (Homo sapiens, UniProt Q5TCX8)
Chain of MLK4 (Q5TCX8 whole entry): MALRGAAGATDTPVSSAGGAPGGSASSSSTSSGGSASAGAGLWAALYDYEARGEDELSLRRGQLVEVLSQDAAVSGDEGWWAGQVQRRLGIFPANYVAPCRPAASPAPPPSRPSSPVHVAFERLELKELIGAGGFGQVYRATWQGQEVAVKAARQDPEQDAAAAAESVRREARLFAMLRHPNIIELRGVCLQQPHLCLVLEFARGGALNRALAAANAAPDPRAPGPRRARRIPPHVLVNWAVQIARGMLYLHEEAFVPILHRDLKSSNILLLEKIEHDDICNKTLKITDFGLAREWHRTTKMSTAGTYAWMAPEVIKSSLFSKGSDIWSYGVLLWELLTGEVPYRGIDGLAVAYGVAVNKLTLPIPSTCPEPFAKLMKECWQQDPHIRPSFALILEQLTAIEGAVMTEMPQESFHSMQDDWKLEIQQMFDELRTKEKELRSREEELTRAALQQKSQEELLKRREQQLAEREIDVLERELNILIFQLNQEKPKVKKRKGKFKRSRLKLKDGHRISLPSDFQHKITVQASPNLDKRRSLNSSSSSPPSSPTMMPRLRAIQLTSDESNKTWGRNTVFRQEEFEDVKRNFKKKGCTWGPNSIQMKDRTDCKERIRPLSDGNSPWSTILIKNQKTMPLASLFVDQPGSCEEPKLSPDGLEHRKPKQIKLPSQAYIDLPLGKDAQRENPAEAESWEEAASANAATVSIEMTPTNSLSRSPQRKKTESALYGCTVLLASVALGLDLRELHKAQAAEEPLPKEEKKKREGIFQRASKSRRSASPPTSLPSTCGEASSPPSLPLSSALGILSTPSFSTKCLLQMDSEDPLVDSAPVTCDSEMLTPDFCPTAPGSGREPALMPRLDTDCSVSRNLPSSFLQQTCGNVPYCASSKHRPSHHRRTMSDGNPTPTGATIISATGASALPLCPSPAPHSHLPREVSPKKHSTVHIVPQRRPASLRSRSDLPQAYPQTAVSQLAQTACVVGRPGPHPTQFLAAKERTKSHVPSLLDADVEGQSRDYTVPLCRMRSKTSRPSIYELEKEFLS
Method in brief: as §1

PAK4 = PAK4 (Homo sapiens, UniProt O96013)
Chain of PAK4 (O96013 whole entry): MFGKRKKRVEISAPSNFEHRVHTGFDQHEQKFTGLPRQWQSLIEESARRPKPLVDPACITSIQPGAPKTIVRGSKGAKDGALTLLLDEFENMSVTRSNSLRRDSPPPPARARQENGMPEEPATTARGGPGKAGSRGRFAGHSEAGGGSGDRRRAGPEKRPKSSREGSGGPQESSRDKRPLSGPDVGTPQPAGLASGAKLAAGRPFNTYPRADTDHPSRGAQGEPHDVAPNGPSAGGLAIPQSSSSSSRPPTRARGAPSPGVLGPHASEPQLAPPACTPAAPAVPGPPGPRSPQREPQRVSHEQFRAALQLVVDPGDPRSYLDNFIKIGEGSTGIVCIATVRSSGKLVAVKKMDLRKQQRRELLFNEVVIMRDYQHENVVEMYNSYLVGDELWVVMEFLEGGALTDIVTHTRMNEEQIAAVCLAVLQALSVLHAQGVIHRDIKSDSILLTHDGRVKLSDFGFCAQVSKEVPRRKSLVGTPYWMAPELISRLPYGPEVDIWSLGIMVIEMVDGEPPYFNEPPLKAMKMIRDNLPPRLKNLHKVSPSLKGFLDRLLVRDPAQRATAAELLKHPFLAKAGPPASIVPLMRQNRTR
Method in brief: as §1

MLK3 = MLK3 (Homo sapiens, UniProt Q16584)
Chain of MLK3 (Q16584 whole entry): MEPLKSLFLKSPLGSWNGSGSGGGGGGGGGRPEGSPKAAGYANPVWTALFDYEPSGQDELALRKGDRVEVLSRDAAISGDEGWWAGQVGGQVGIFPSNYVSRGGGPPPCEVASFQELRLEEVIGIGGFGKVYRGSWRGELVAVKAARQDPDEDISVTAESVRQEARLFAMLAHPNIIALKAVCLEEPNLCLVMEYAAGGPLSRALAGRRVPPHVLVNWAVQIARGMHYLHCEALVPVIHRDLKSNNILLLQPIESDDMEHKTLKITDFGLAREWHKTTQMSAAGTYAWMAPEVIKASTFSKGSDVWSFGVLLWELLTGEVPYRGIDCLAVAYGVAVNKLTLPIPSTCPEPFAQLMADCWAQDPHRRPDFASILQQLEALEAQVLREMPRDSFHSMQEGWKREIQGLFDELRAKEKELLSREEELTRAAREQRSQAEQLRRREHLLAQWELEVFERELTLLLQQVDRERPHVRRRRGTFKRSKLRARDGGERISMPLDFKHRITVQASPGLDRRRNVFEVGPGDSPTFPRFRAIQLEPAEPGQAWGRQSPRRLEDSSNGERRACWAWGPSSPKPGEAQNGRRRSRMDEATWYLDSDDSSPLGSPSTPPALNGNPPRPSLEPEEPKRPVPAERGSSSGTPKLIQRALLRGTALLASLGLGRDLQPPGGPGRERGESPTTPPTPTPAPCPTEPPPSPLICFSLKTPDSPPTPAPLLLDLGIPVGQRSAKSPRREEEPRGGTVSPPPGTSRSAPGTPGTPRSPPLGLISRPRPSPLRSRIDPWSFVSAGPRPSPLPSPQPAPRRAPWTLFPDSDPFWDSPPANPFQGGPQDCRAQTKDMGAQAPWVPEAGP
Method in brief: as §1

inhibition at 10 µM (TBK1): 94.8%
inhibition at 10 µM (Wee1): 98.2%
inhibition at 10 µM (NEK3): 97%
inhibition at 10 µM (CaMKK2): 98.1%
inhibition at 10 µM (MLK4): 95%
inhibition at 10 µM (PAK4): 97.5%
Competition % (MLK3): 96.5%
SMILES: CS(=O)(=O)Nc1ccccc1Nc1nc(Nc2cccc(OCCN)c2)ncc1Cl [CZC31326, N-(2-(2-(3-(2-aminoethoxy)phenylamino)-5-chloropyrimidin-4-ylamino)phenyl)methanesulfonamide]

Source: US20120270237A9, “METHODS FOR THE IDENTIFICATION OF KINASE INTERACTING MOLECULES AND FOR THE PURIFICATION OF KINASE PROTEINS” (Cellzone AG, priority 2009, published 2012)
